Test results as given in patent US20200216416A1, “QUINOLINE COMPOUNDS AS INHIBITORS OF TAM AND MET KINASES” (Array BioPharma Inc., priority 2019, published 2020).

Legend:
human MET kinase Y1230H = biological target: T1, human MET kinase Y1230H (Homo sapiens, UniProt P08581, Y1230H); test: c-Met Enzyme Assay, Y1230H mutant; type: binding; details: averaged IC50; Y1230H 5 nM; 60-minute incubation at 22° C.; read-out: Y1230 H IC50
T1 construct: GST-tagged recombinant human MET kinase domain; purchased Signal Chem
Outline: (§1)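 LanthaScreen Eu TR-FRET binding: GST-tagged recombinant MET kinase domain incubated with compound, 50 nM Alexa-Fluor Tracer 236 and 2 nM Eu-anti-GST in 25 mM HEPES pH 7.4, 10 mM MgCl2, 1 mM DTT, 2% DMSO, 60 min at 22 °C. Ratiometric emission gave percent of control; IC50 from 4-parameter fit at 50 POC.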

human MET kinase Y1230C = biological target: T2, human MET kinase Y1230C (Homo sapiens, UniProt P08581, Y1230C); test: c-Met Enzyme Assay, Y1230C mutant; type: binding; details: averaged IC50; Y1230C 2 nM; 60-minute incubation at 22° C.; read-out: Y1230 C IC50
T2 construct: GST-tagged recombinant human MET kinase domain; purchased Signal Chem
Outline: as §1

human MET kinase L1195V = biological target: T3, human MET kinase L1195V (Homo sapiens, UniProt P08581, L1195V); test: c-Met Enzyme Assay, L1195V mutant; type: binding; details: averaged IC50; L1195V 10 nM; 60-minute incubation at 22° C.
T3 construct: GST-tagged recombinant human MET kinase domain; purchased Signal Chem
Outline: as §1

[1] = biological target: T4, His-tagged recombinant human MER cytoplasmic domain (Homo sapiens, UniProt Q12866); test: MER Enzyme Assay (LanthaScreen Eu Kinase Binding); details: averaged IC50; MER 5 nM; 60-minute incubation at 22° C.; TR-FRET
T4 construct: His-tagged recombinant human MER cytoplasmic domain
T4 sequence (Q12866 527-999 limits assumed): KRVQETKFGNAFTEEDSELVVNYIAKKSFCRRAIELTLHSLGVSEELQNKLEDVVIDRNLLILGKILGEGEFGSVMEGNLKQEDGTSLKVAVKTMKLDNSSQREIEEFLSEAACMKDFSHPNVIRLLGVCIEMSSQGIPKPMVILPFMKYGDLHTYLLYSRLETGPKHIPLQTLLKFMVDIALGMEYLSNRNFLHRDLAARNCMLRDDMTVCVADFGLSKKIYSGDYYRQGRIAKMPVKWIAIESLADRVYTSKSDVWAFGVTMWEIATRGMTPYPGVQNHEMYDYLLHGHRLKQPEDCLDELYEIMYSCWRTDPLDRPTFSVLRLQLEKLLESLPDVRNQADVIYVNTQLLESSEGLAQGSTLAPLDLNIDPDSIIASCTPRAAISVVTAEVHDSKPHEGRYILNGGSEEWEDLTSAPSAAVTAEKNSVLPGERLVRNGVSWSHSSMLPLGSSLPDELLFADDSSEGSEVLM
Outline: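 TR-FRET binding: 5 nM His-MER cytoplasmic domain with 20 nM Tracer 236, 2 nM biotin-anti-His and 2 nM Eu-streptavidin in pH 7.4 HEPES, 10 mM MgCl2, 2% DMSO, with threefold compound dilutions, 60 min at 22 °C. Percent of control was fit to a 4-parameter logistic, and IC50 was taken at 50 POC.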

[2] = biological target: T5, human MET kinase del Ex14 (Homo sapiens, UniProt P08581, DEL963-1009); test: c-Met Enzyme Assay, del Ex14 mutant; type: binding; details: averaged IC50; del Ex14 5 nM; 60-minute incubation at 22° C.; read-out: Del14 IC50
T5 construct: GST-tagged recombinant human MET kinase domain; purchased Signal Chem
Outline: as §1

human MET kinase D1228N = biological target: T6, human MET kinase D1228N (Homo sapiens, UniProt P08581, D1228N); test: c-Met Enzyme Assay, D1228N mutant; type: binding; details: averaged IC50; D1228N 2 nM; 60-minute incubation at 22° C.; read-out: D1228 N IC50
T6 construct: GST-tagged recombinant human MET kinase domain; purchased Signal Chem
Outline: as §1

[3] = biological target: T7, MET (wt) GST-tagged recombinant human MET kinase domain (Homo sapiens, UniProt P08581); test: c-Met Enzyme Assay, wild type (LanthaScreen Eu Kinase Binding); details: averaged IC50; MET (wt) 10 nM; 60-minute incubation at 22° C.; read-out: SigChem WT IC50
T7 construct: GST-tagged recombinant human MET kinase domain; purchased Signal Chem
Outline: as §1

human MET kinase D1228H = biological target: T8, human MET kinase D1228H (Homo sapiens, UniProt P08581, D1228H); test: c-Met Enzyme Assay, D1228H mutant; type: binding; details: averaged IC50; D1228H 2 nM; 60-minute incubation at 22° C.; read-out: D1228 H IC50
T8 construct: GST-tagged recombinant human MET kinase domain; purchased Signal Chem
Outline: as §1

human MET kinase F1200I = biological target: T9, human MET kinase F1200I (Homo sapiens, UniProt P08581, F1200I); test: c-Met Enzyme Assay, F1200I mutant; type: binding; details: averaged IC50; F1200I 2 nM; 60-minute incubation at 22° C.
T9 construct: GST-tagged recombinant human MET kinase domain; purchased Signal Chem
Outline: as §1

T6 sequence (P08581 1078-1345 D1228N): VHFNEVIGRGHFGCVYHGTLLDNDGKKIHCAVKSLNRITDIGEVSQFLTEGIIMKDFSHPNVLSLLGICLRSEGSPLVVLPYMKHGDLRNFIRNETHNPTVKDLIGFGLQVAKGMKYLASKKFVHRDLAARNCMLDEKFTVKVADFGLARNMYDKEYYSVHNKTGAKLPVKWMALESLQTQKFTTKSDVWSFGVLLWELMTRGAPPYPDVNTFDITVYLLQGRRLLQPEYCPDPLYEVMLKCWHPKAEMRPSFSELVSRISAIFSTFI
T1 sequence (P08581 1078-1345 Y1230H): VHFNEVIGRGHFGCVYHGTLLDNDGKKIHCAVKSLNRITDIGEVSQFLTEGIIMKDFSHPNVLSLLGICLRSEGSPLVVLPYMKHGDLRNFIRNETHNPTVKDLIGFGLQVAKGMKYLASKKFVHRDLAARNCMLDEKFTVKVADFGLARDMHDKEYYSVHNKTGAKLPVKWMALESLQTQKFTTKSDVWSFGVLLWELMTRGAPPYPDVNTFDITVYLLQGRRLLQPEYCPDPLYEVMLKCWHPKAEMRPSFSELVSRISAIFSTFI
T3 sequence (P08581 1078-1345 L1195V limits assumed): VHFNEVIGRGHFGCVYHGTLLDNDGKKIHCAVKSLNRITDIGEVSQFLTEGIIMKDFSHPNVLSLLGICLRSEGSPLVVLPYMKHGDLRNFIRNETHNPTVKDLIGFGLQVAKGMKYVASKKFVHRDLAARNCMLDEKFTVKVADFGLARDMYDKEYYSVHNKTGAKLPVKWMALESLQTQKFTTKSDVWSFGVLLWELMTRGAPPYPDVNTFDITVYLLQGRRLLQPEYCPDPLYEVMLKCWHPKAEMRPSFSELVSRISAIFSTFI
T9 sequence (P08581 1078-1345 F1200I limits assumed): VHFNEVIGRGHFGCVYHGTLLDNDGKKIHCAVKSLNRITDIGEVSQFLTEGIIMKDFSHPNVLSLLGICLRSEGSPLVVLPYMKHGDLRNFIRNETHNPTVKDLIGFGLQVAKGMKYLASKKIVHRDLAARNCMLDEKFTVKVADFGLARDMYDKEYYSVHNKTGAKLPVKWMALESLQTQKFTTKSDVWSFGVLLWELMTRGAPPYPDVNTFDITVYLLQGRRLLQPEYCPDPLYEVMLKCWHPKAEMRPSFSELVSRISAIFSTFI
T8 sequence (P08581 1078-1345 D1228H): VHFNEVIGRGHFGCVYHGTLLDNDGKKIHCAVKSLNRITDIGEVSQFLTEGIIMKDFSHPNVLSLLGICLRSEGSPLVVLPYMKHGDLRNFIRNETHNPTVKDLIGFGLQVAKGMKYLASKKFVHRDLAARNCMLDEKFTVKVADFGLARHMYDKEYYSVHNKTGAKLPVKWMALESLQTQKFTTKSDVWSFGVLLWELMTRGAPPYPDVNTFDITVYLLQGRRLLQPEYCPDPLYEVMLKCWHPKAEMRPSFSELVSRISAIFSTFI
T5 sequence (P08581 with tags, fused parts or gaps DEL963-1009 limits assumed): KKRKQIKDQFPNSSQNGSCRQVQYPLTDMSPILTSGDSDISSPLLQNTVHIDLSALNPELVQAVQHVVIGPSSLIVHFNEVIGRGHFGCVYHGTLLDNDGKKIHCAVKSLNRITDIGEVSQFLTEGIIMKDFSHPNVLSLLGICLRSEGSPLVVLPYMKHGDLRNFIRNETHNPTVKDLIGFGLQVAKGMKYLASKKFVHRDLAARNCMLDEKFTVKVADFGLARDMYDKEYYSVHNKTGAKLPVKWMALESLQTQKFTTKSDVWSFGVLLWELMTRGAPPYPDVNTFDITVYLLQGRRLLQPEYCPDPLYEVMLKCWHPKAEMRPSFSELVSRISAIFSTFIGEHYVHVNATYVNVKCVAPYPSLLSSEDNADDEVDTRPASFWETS
T7 sequence (P08581 1078-1345 limits assumed): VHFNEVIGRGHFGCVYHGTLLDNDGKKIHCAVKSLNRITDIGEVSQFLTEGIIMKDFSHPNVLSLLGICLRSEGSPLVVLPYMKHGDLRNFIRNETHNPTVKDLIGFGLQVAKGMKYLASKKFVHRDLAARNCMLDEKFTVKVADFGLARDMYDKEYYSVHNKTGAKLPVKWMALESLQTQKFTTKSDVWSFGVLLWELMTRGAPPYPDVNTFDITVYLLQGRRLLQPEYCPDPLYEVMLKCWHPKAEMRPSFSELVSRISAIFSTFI
T2 sequence (P08581 1078-1345 Y1230C): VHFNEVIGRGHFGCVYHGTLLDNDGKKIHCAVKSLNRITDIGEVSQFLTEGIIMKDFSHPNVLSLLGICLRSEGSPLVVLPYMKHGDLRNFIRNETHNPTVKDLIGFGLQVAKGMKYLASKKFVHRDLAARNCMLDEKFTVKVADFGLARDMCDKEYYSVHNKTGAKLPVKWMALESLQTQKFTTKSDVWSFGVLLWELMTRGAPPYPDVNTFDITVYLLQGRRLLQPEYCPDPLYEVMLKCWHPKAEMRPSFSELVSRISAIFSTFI

| IC50 (human MET kinase Y1230H) | IC50 (human MET kinase Y1230C) | IC50 (human MET kinase L1195V) | IC50 [1] | IC50 [2] | IC50 (human MET kinase D1228N) | IC50 [3] | IC50 (human MET kinase D1228H) | IC50 (human MET kinase F1200I) | Structure (SMILES) |
| --- | --- | --- | --- | --- | --- | --- | --- | --- | --- |
| 7.2 nM | 4.3 nM | 14.7 nM | 10 nM | 3.8 nM | 8.3 nM | 4.7 nM | 3.8 nM | 6.7 nM | COc1cc2nccc(Oc3cnc(NC(=O)c4cn(C(C)C)cc(-c5ccc(F)cc5)c4=O)nc3)c2cc1OC [Example 54, N-(5-((6,7-dimethoxyquinolin-4-yl)oxy)pyrimidin-2-yl)-5-(4-fluorophenyl)-1-isopropyl-4-oxo-1,4-dihydropyridine-3-carboxamide] |
| 2.8 nM | 2.2 nM | 5.1 nM | 5 nM | 3.1 nM | 3.4 nM | 2.8 nM | 2.2 nM | 3.4 nM | COc1cc2nccc(Oc3cnc(NC(=O)c4cn(C(C)C)c(C)c(-c5ccc(F)cc5)c4=O)nc3)c2cc1OC [Example 55, N-(5-((6,7-dimethoxyquinolin-4-yl)oxy)pyrimidin-2-yl)-5-(4-fluorophenyl)-1-isopropyl-6-methyl-4-oxo-1,4-dihydropyridine-3-carboxamide] |
| 5.2 nM | 3.2 nM | 5.3 nM | 6 nM | 4.5 nM | 4.3 nM | 3.9 nM | 1.9 nM | 5 nM | COc1cc2c(Oc3ccc(NC(=O)c4cn(C(C)C)cc(-c5ccc(F)cc5)c4=O)nc3)ccnc2cc1OCCCN1CCOCC1 [Example 56, 5-(4-fluorophenyl)-1-isopropyl-N-(5-((6-methoxy-7-(3-morpholinopropoxy)quinolin-4-yl)oxy)pyridin-2-yl)-4-oxo-1,4-dihydropyridine-3-carboxamide] |
| 5.3 nM | 2.2 nM | 35 nM | 2 nM | 3.1 nM | 7.7 nM | 2.7 nM | 3.5 nM | 3.5 nM | COc1cc2nccc(Oc3ccc(NC(=O)c4cn(C(C)C)cc(-c5ccc(F)cc5)c4=O)cn3)c2cc1OC [Example 58, N-(6-((6,7-dimethoxyquinolin-4-yl)oxy)pyridin-3-yl)-5-(4-fluorophenyl)-1-isopropyl-4-oxo-1,4-dihydropyridine-3-carboxamide] |
